The data set in a line: solvent given as SMILES.

Here are results for 34 molecules from the Deep4Chem optical property database.

`O=c1cc2c(Br)c(O)c3cccc4ccc(o1)c2c43`: the emission maximum (in CC1CCCO1) is given as 484 nm.

`O=c1c2ccccc2nc2ccc(-c3ccc(N(c4ccccc4)c4ccccc4)cc3)cn12` returned an emission maximum (in ClCCl) of 521 nm.

`c1ccc(C2c3ccc4ccc5ccccc5c4c3-c3c2ccc2ccc4ccccc4c32)cc1` registered an emission maximum (in ClCCl) of 425 nm.

As for `F[B-]1(F)n2c(cc3oc4ccccc4c32)C(c2ccc(I)cc2)=C2C=c3oc4ccccc4c3=[N+]21`, the emission maximum (in ClC(Cl)Cl) was 647 nm.

Take `COc1cc(OC)cc(C2=C3C(C)=C(I)C(/C=C/c4c[nH]c5ccccc45)=[N+]3[B-](F)(F)n3c(/C=C/c4c[nH]c5ccccc45)c(I)c(C)c32)c1`: the emission maximum (in C1CCOC1) was 748 nm, the emission maximum (in CS(C)=O) came out at 771 nm and the emission maximum (in ClCCl) was determined as 735 nm.

Regarding `CC1(C)c2ccccc2N(c2ccc(-c3nc(-c4ccccn4)n(-c4ccc(N5c6ccccc6C(C)(C)c6ccccc65)cc4)n3)cc2)c2ccccc21`, the emission maximum (in ClCCl) is reported as 445 nm.

Molecule `Cc1c(C)c(-c2ccc(-c3cccnc3)cc2)c(C)c(C)c1B(c1c(C)c(C)c(-c2ccc(-c3cccnc3)cc2)c(C)c1C)c1c(C)c(C)c(-c2ccc(-c3cccnc3)cc2)c(C)c1C` came in with an emission maximum (in ClCCl) of 404 nm.

For the molecule `CC1(C)CC(/C=C/c2ccc(-n3cccn3)cc2)=CC(=C(C#N)C#N)C1`, the emission maximum by setting is: (in C1CCOC1) 529 nm; (in CC#N) 538 nm; (in CCO) 532 nm; (in CCOC(C)=O) 526 nm; (in ClCCl) 528 nm; (in c1ccccc1) 511 nm.

`CC(C)(C)c1ccc2c(c1)c1cc(C(C)(C)C)ccc1n2-c1ccc(N(c2ccc(-c3ccc(-c4ccc(-c5ccc(-c6ccc(N(c7ccc(-n8c9ccc(C(C)(C)C)cc9c9cc(C(C)(C)C)ccc98)cc7)c7ccc(-n8c9ccc(C(C)(C)C)cc9c9cc(C(C)(C)C)ccc98)cc7)cc6)s5)c5nsnc45)s3)cc2)c2ccc(-n3c4ccc(C(C)(C)C)cc4c4cc(C(C)(C)C)ccc43)cc2)cc1` registered an emission maximum (in ClCCl) of 640 nm.

For the molecule `C1=C2C3=C(C4=[N+]2[B-]2(Oc5ccccc54)Oc4ccccc4-c4c5c(c1n42)C1CCC5CC1)C1CCC3CC1` (stereo not given), the emission maximum (in ClCCl) was 645 nm.

`Cc1nc2c(ccc3ccc(O)cc32)oc1=O` registered an emission maximum (in c1ccccc1) of 461 nm.

Consider `F[B-]1(F)OC(C#Cc2ccccc2)=CC(c2ccccc2)=[O+]1`, for which the emission maximum (in ClCCl) worked out at 420 nm.

With `CCCCCCCCCCCCN1C(=O)c2c(c3ccc4cc(-c5ccc(OC)cc5)c(OC)cc4c3c3c2ccc2cc(-c4ccc(OC)cc4)c(OC)cc23)C1=O`, the emission maximum (in ClCCl) is 532 nm.

In the case of `F[B-]1(F)n2c(Nc3cccc4cccnc34)ccc2C(c2ccccc2)=C2C=CC(Cl)=[N+]21`, the emission maximum was 580 nm (in C1CCCCC1), 580 nm (in CC#N), 586 nm (in Cc1ccccc1) and 583 nm (in ClC(Cl)Cl).

In the case of `C[N+]1=C(/C=C/C2=C3Oc4c(cc5c6c4CCCN6CCC5)C(c4ccccc4C(=O)O)=C3CCC2)C(C)(C)c2c1ccc1ccccc21`, the emission maximum came to 780 nm (in CC#N), 763 nm (in CCO), 768 nm (in CO) and 775 nm (in ClC(Cl)Cl).

In the case of `CC(C)(C)c1ccc2c(c1)c1cc(C(C)(C)C)ccc1n2-c1ccc(-c2nc(-c3ccccc3)nc(-c3ccccc3)n2)c2c1c1ccccc1n2-c1ccccc1`, the emission maximum turned out to be 450 nm (in C1CCOC1), 417 nm (in Cc1ccccc1) and 474.77 nm (in ClCCl).

Regarding `COc1ccc(-c2oc3cccc4c5c(-c6ccc(OC)c(OC)c6)/c(=N/S(=O)(=O)C(F)(F)F)oc6cccc(c2c34)c65)cc1OC`, where the note is “in ClC(Cl)Cl”, the emission maximum came out at 613 nm.

For `Oc1ccccc1-c1nc2c3ccccc3c3ccccc3c2o1`, for the setting “in Cc1ccccc1”, the emission maximum is reported as 367 nm.

Turning to `CCC1=C(C)C2=C(c3c4ccccc4c(-c4ccccc4)c4ccccc34)c3c(C)c(CC)c(C)n3[B-](F)(F)[N+]2=C1C`, the emission maximum (in CC#N) is on record as 536 nm; the emission maximum (in CCCCCC) came out at 539 nm; the emission maximum (in CCO) was 538 nm; the emission maximum (in CN(C)C=O) is 539 nm; the emission maximum (in Cc1ccccc1) turned out to be 544 nm; the emission maximum (in ClCCl) is given as 543 nm.

Consider `CN(C)CCNCc1c2ccccc2cc2ccccc12`, for which the emission maximum runs as follows: (in C1CCCCC1) 388 nm; (in C1CCOC1) 413 nm; (in CC#N) 389 nm; (in CC(C)=O) 387 nm; (in CCO) 410 nm; (in CN(C)C=O) 414 nm. The molecule further registered an emission maximum (in CO) of 388 nm and an emission maximum (in ClC(Cl)Cl) of 417 nm.

With `O=C(c1ccc2c3c(cccc13)-c1cccc3c1C2CC=C3)c1c(Cc2ccccc2)c2ccc3cccc4c5cccc6ccc1c(c65)c2c34` (stereo not given), the emission maximum (in ClCCl) is 528 nm.

`CCN(CC)c1ccc2c(-c3ccccc3C(=O)O)c3c([o+]c2c1)/C(=C/c1nc(-c2ccccc2)n2ccccc12)CCC3`: the emission maximum (in ClCCl) came to 746 nm.

Take `N#Cc1nc(-n2c3ccccc3c3ccccc32)cc(-n2c3ccccc3c3ccccc32)n1`: the emission maximum (in Cc1ccccc1) is 518 nm.

For `O=c1oc2ccccc2c2c1c(=O)oc1cc(O)ccc12`, where the note is “in ClCCl”, the emission maximum was 455 nm.

As for `O=[N+]([O-])c1ccc(C#Cc2ccc3ccccc3c2)cc1`, the emission maximum by setting is: (in ClC(Cl)Cl) 536 nm; (in ClCCl) 546 nm.

As for `CCOC(=O)CCCn1c(C(=O)OC)c(C)c2c(=O)n3c(cc21)C(CC)=C(C)C3=O`, the emission maximum runs as follows: (in C1CCCCC1) 434 nm; (in CO) 499 nm; (in CS(C)=O) 481 nm; (in ClC(Cl)Cl) 456 nm; (in c1ccccc1) 446 nm.

Turning to `NC(=O)Cc1cccc2ccccc12`, the emission maximum is, setting by setting: (in C1COCCO1) 326 nm; (in CC#N) 325 nm; (in CCO) 325 nm; (in ClC(Cl)Cl) 325 nm; (in O) 324 nm; (in OCCO) 325 nm. Further, for the setting “in [2H]O[2H]”, the emission maximum turned out to be 324 nm.

Where the note is “in O=P(c1ccccc1)(c1ccccc1)c1ccccc1Oc1ccccc1P(=O)(c1ccccc1)c1ccccc1”, `c1ccc(-c2nc(-c3ccccc3)nc(-c3ccc(-n4c5ccccc5c5cc(-c6ccc7c(c6)c6ccccc6n7-c6ccccc6)ccc54)cc3)n2)cc1` registered an emission maximum of 458.07 nm.

In the case of `N#Cc1ccc(N(c2ccccc2)c2ccc3ccc4c(N(c5ccccc5)c5ccc(C#N)cc5)ccc5ccc2c3c54)cc1`, the emission maximum (in ClCCl) was 454 nm.

Regarding `CC(C)c1cccc(C(C)C)c1N1C(=O)c2ccc3c(-c4ccc(C(=O)O)cc4)c4c5ccc6c7c(ccc(c(-c8ccc(C(=O)O)cc8)c4c4ccc(c2c34)C1=O)c75)C(=O)N(c1c(C(C)C)cccc1C(C)C)C6=O`, the emission maximum (in ClCCl) is given as 682 nm.

As to `c1ccc(N(c2ccccc2)c2ccc(-c3ccc(-c4cc(-c5ccccn5)nc(-c5ccccn5)c4)cc3)cc2)cc1`, for the setting “in ClCCl”, the emission maximum amounted to 489 nm.

As for `[BH3-][P+]1(c2ccccc2)c2ccccc2-c2sc3ccccc3c21` (stereo not given), the emission maximum reads like this: (in C1CCCCC1) 395 nm; (in CC#N) 401 nm; (in CCO) 400 nm; (in ClCCl) 400 nm.

For `Cc1ccc2c(c1)nnn2-c1c(C#N)c2c(N)ncnc2n1[C@H]1C[C@H](O)[C@@H](CO)O1`, the emission maximum (in CO) is listed as 419 nm.

In turn, `O=C1OC(=O)C2=C1S[C@]13C2=C[C@H](c2ccccc21)c1ccccc13` had an emission maximum (in ClCCl) of 514 nm.
